# Laboratory results from patent publication US4107424A, “1-N-[(S)-α-hydroxy-ω-aminoacyl] derivatives of 3',4'-dideoxykanamycin B and 3'-deoxykanamycin B antibiotics” (Zaidan Hojin Biseibutsu Kagaku Kenkyu Kai, priority 1972, dated 1978).
# Read-outs that look alike come from different tables or passages of the source.
# Legend:
# [1] = system: kanamycin-resistant strains; conditions: strains producing 3'-hydroxyl phosphorylating enzyme; cited from earlier work
# [2] = system: Escherichia coli K-12 R-5; assay: Minimal inhibitory concentration, agar dilution streak method; format: cell-based; conditions: K12R5, nutrient agar, 37° C, 18 hours
# Protocol: (§1) [α]D^22 + 38°, (c 0.85, water).
# (§2) *Agar Agar dilution streak method (nutrient agar, 37° C, 18 hours)
# (§3) *Agar dilution streak method (nutrient agar, 37° C, 18 hours).
# [3] = system: Bacillus subtilis NRRL B-558; assay: as above; format: cell-based; conditions: NRRLB558, nutrient agar, 37° C, 18 hours
# Protocol: as §1, §2, §3
# Proteus rettgeri GN 466 = assay: as above; format: cell-based; conditions: Providencia rettgeri, GN466; nutrient agar, 37° C, 18 hours
# Protocol: as §1, §2, §3
# [4] = system: Escherichia coli K-12 C 600 R 135; assay: as above; format: cell-based; conditions: 18 h, read-out: Minimal inhibitory concentration
# Protocol: as §1, §2, §3
# Proteus rettgeri GN 311 = assay: as above; format: cell-based; conditions: Providencia rettgeri, GN311; nutrient agar, 37° C, 18 hours
# Protocol: as §1, §2, §3
# [5] = system: Pseudomonas aeruginosa 99; assay: as above; format: cell-based; conditions: nutrient agar, 37° C, 18 hours, read-out: Minimal inhibitory concentration
# Protocol: as §1, §2, §3
# Escherichia coli NIHJ = assay: as above; format: cell-based; conditions: nutrient agar, 37° C, 18 hours
# Protocol: as §1, §2, §3
# Sarcina lutea PCI 1001 = assay: as above; format: cell-based; conditions: Micrococcus luteus, PCI1001; nutrient agar, 37° C, 18 hours; read-out: Minimal inhibitory concentration
# Protocol: as §1, §2, §3
# [6] = system: Escherichia coli J 5 R 11-2; assay: as above; format: cell-based; conditions: J5R112, 18 h, read-out: Minimal inhibitory concentration
# Protocol: as §1, §2, §3
# [7] = system: Klebsiella pneumoniae PCI 602; assay: as above; format: cell-based; conditions: PCI602, nutrient agar, 37° C, 18 hours
# Protocol: as §1, §2, §3
# Salmonella typhosa T-63 = assay: as above; format: cell-based; conditions: Salmonella enterica, nutrient agar, 37° C, 18 hours
# Protocol: as §1, §2, §3
# [8] = system: Mycobacterium smegmatis ATCC 607; assay: as above; format: cell-based; conditions: Mycolicibacterium smegmatis, ATCC607; nutrient agar, 37° C, 48 hours; read-out: Minimal inhibitory concentration
# [9] = system: Escherichia coli K-12 JR 66/W 677; assay: as above; format: cell-based; conditions: Escherichia coli, 18 h
# Protocol: as §2, §3
# [10] = system: Pseudomonas aeruginosa A 3; assay: as above; format: cell-based; conditions: A3, nutrient agar, 37° C, 18 hours, read-out: Minimal inhibitory concentration
# Protocol: as §2, §3
# Escherichia coli K-12 = assay: as above; format: cell-based; conditions: K12, nutrient agar, 37° C, 18 hours, read-out: Minimal inhibitory concentration
# Protocol: as §2, §3
# [11] = system: Escherichia coli K-12 W 677; assay: as above; format: cell-based; conditions: K12W677, nutrient agar, 37° C, 18 hours, read-out: Minimal inhibitory concentration
# Protocol: as §2, §3
# [12] = system: Escherichia coli K-12 ML 1410 R 81; assay: as above; format: cell-based; conditions: 18 h, read-out: Minimal inhibitory concentration
# Protocol: as §2, §3
# [13] = system: Escherichia coli K-12 LA 290 R 64; assay: as above; format: cell-based; conditions: nutrient agar, 37° C, 18 hours, read-out: Minimal inhibitory concentration
# Protocol: as §2, §3
# [14] = system: Escherichia coli K-12 LA 290 R 56; assay: as above; format: cell-based; conditions: 18 h, read-out: Minimal inhibitory concentration
# Protocol: as §2, §3
# [15] = system: Escherichia coli K-12 LA 290 R 55; assay: as above; format: cell-based; conditions: 18 h
# Protocol: as §2, §3
# [16] = system: Staphylococcus aureus FDA 209P; assay: as above; format: cell-based; conditions: FDA209P, nutrient agar, 37° C, 18 hours, read-out: Minimal inhibitory concentration
# Protocol: as §2, §3
# [17] = system: Klebsiella pneumoniae type 22 #3038; assay: as above; format: cell-based; conditions: Klebsiella pneumoniae; nutrient agar, 37° C, 18 hours
# Protocol: as §2, §3
# [18] = system: Escherichia coli K-12 ML 1630; assay: as above; format: cell-based; conditions: K12ML1630, nutrient agar, 37° C, 18 hours, read-out: Minimal inhibitory concentration
# Protocol: as §2, §3
# [19] = system: Pseudomonas aeruginosa GN 315; assay: as above; format: cell-based; conditions: GN315, nutrient agar, 37° C, 18 hours
# Protocol: as §2, §3
# [20] = system: Escherichia coli K-12 ML 1410; assay: as above; format: cell-based; conditions: K12ML1410, nutrient agar, 37° C, 18 hours, read-out: Minimal inhibitory concentration
# Protocol: as §2, §3
# [21] = system: Pseudomonas aeruginosa No.12; assay: as above; format: cell-based; conditions: nutrient agar, 37° C, 18 hours, read-out: Minimal inhibitory concentration
# Protocol: as §2, §3
# [22] = system: Pseudomonas aeruginosa TI-13; assay: as above; format: cell-based; conditions: TI13, nutrient agar, 37° C, 18 hours, read-out: Minimal inhibitory concentration
# Protocol: as §2, §3
# [23] = system: Escherichia coli K-12 ML 1629; assay: as above; format: cell-based; conditions: K12ML1629, nutrient agar, 37° C, 18 hours
# Protocol: as §2, §3
# [24] = read-out: Minimal inhibitory concentration
# [25] = read-out: minimum inhibitory concentrations
# [26] = drug-resistant strain, read-out: minimum inhibitory concentrations
smiles,measurement,setting,value
"NC[C@@H]1CC[C@@H](N)[C@@H](O[C@H]2[C@H](O)[C@@H](O)[C@H](N)C[C@@H]2N)O1 [3',4'-dideoxyneamine]",activity against kanamycin-resistant strains,[1],actually effective
same,MIC,[2],50 µg/mL
same,MIC,[3],0.39 µg/mL
same,MIC,Proteus rettgeri GN 466,25 µg/mL
same,MIC,[4],12.5 µg/mL
same,MIC,Proteus rettgeri GN 311,50 µg/mL
same,MIC,[5],50 µg/mL
same,MIC,Escherichia coli NIHJ,12.5 µg/mL
same,MIC,Sarcina lutea PCI 1001,50 µg/mL
same,MIC,[6],6.25 µg/mL
same,MIC,[7],25 µg/mL
same,MIC,Salmonella typhosa T-63,3.12 µg/mL
same,MIC,[8],25 µg/mL
same,MIC,[9]; [24],25 µg/mL
same,MIC,[10],25 µg/mL
same,MIC,Escherichia coli K-12,6.25 µg/mL
same,MIC,[11],6.25 µg/mL
same,MIC,[12],25 µg/mL
same,MIC,[13],12.5 µg/mL
same,MIC,[14],6.25 µg/mL
same,MIC,[15]; [24],6.25 µg/mL
same,MIC,[16],6.25 µg/mL
same,MIC,[17],25 µg/mL
same,MIC,[18],12.5 µg/mL
same,MIC,[19]; [24],> 100 µg/mL
same,MIC,[20],6.25 µg/mL
same,MIC,[21],25 µg/mL
same,MIC,[22],25 µg/mL
same,MIC,[23]; [24],12.5 µg/mL
NCC1OC(OC2C(N)CC(N)C(OC3OC(CO)C(O)C(N)C3O)C2O)C(O)CC1O (centres unmarked) [3'-deoxykanamycin],activity against kanamycin-resistant strains,[1],actually effective
NC[C@H]1O[C@H](O[C@H]2[C@H](O)[C@@H](O)[C@H](N)C[C@@H]2N)[C@H](N)C[C@@H]1O [3'-deoxyneamine],activity against kanamycin-resistant strains,[1],actually effective
same,MIC,[9]; [25],> 100 µg/mL
same,MIC,[15]; [25],100 µg/mL
same,MIC,[19]; [26],> 100 µg/mL
same,MIC,[23]; [26],6.25 µg/mL
